Assays:
[1] = tested on: F508del-homozygous HBEC cultures; assay: μOCT imaging of ASL depth, MCT rate and CBF in F508del-homozygous CF HBEC cultures; type: cell-based, human; details: AZD5634 1 µM apical
Experimental: Using previously described techniques ([2], [37]), epithelial cells were harvested from excised lung tissue derived from CF donors homozygous for F508del CFTR, expanded, and grown until confluency was attained. The cells were then seeded on 6.5-mm-diameter, 24-well Transwell permeable membrane supports coated with NIH 3T3 fibroblast unconditioned media (0.5 × 10^6 cells/filter; Corning Inc., Corning, NY) and further allowed to mature in differentiating media (PneumaCult ALI, […] Technologies, Cambridge, MA) for a minimum of 4–5 wk until fully differentiated. To stimulate fresh mucus secretion and formation of an even ASL layer, the cells were washed 48–72 h before experimentation with PneumaCult ALI media (80 µL), added apically, and then aspirated following 30–45 min incubation at 37°C. The washing process was repeated with a 15-min incubation period and the mucus layer was allowed to reestablish, after which the cells were treated with 1 µL of AZD5634 (1 µM, apical), alone and in combination with lumacaftor and ivacaftor (luma/iva; 3 µM/10 µM, basolateral). PBS (1% DMSO, apical) served as a vehicle control. […] Only passage 1 and 2 monolayers were used for these studies.
μOCT imaging and analysis were conducted in vitro and ex vivo as detailed in previous publications ([2], [39]–[41]). […] Following imaging of HBEC cultures and of excised trachea and lungs, images were assessed to obtain quantitative measurements of mucociliary transport (MCT) rate, ASL depth, and ciliary beat frequency (CBF). MCT rates were calculated by analyzing the distance traveled by native particles in the mucus layer over time across multiple frames. […] CBF was determined by using custom code developed in Matlab (Mathworks, Natick, MA) to quantify the reflectance of beating cilia by Fourier analysis. […]
(§1) Descriptive statistics were calculated and means compared using unpaired or paired t tests, or ANOVA, with post hoc analyses conducted for multiple comparisons where appropriate. […]

Cftr^−/− rats = assay: μOCT of trachea and lungs excised en bloc from Cftr-knockout rats treated in vivo; set-up: species or system rat; details: seven 200-μL doses of 54 µM by oropharyngeal aspiration over 4 days; not significant vs vehicle
Experimental: μOCT imaging and analysis were conducted in vitro and ex vivo as detailed in previous publications ([2], [39]–[41]). Briefly, the μOCT system uses light reflectance to produce video-rate (40 frames/s and 512 lines/frame), high-resolution images (1 micron) captured in real-time and without disruption of sample tissue, permitting simultaneous interrogation of key parameters of airway microanatomy without the addition of exogenous particles or dyes. Following imaging of HBEC cultures and of excised trachea and lungs, images were assessed to obtain quantitative measurements of mucociliary transport (MCT) rate, ASL depth, and ciliary beat frequency (CBF). MCT rates were calculated by analyzing the distance traveled by native particles in the mucus layer over time across multiple frames. Direct geometric measurement of layer thickness (Image J software) yielded ASL depths. CBF was determined by using custom code developed in Matlab (Mathworks, Natick, MA) to quantify the reflectance of beating cilia by Fourier analysis. […] The results for each trachea and lung sample reflected an average of measurements from images obtained from a minimum of six controlled points along the tracheal length, using the cranial end as a reference.
Six-month-old Cftr-knockout rats (female and male) were treated with seven 200-μL doses of either 54 µM AZD5634 or vehicle control, delivered by oropharyngeal aspiration, over 4 days (two doses daily for 3 days and a single dose on the 4th day, 2 h before euthanasia). Rats were euthanized by intraperitoneal injection of pentobarbital sodium (Fatal Plus, 100 mg/kg), and trachea and lungs were excised en bloc and dissected along the dorsal surface from the larynx to the terminal end of the main stem bronchi. […]
as §1

Substance AZD5634 has an ASL depth ([1]; 6 h, luma/iva 3 µM/10 µM basolateral, absolute values) of 24.8 ± 3.6 µm, a CBF ([1]; absolute value) of 8.6 ± 0.5 Hz and an MCT rate ([1]; luma/iva 3 µM/10 µM basolateral, absolute values) of 2.5 ± 0.5 mm/min. For the same substance, the ASL depth (Cftr^−/− rats) was 15.8 ± 2.1 µm, the MCT rate (Cftr^−/− rats) was 0.3 ± 0.1 mm/min and the “ciliary beating (CBF)” value (Cftr^−/− rats) was 7.9 ± 0.7 Hz.

Source: PMC9602792, “Preclinical evaluation of the epithelial sodium channel inhibitor AZD5634 and implications on human translation” (American Journal of Physiology - Lung Cellular and …, 2022)
